We go through 10 molecules from ChEMBL document CHEMBL1127906, “Design and synthesis of novel muscarinic agonists containing the 1,2,4-triazine ring as an ester bioisostere” (Bioorg Med Chem Lett, 1994).

The target of test [1] is Muscarinic acetylcholine receptor. In words: Ability to inhibit [3H]oxotremorine-M (OXO-M) binding in rat cerebral cortex. The class given is tissue-based.
Test [2] has the same target. In words: Ability to inhibit [3H]quinuclidinyl benzilate(QNB) binding in rat cerebral cortex, activity expressed as IC50. The class given is tissue-based.
Test [3] deals with Muscarinic acetylcholine receptor (Rattus norvegicus) (UniProt P08482+P08483+P08485+P08911+P10980). In words: Ratio of IC50 values for inhibition of QNB and OXO-M was measured for efficacy of the compound.

As for `COc1nncc([C@H]2CN3CC[C@H]2C3)n1`, the 50% inhibitory concentration (IC50) (as a rule, the concentration that gives 50% inhibition) in test [1] is 140 nM; in test [2], 2400 nM. In addition, the Ratio in test [3] is 17.
With `Cc1nncc(C2CN3CCC2CC3)n1` (stereo not given), the figures for the half-maximal inhibitory concentration (IC50) in test [1] and in test [2] were 4 nM and 225 nM, respectively. The Ratio in test [3] worked out at 56.
The like results for `Cc1nncc(C23CCN(CC2)C3)n1` were, in that order, 70 nM, 4100 nM and 59.
The like results for `Cc1nncc(C23CCCN(CC2)C3)n1` (stereo not given) were, in that order, 33 nM, 1800 nM and 55.
The like results for `Nc1nncc([C@H]2CN3CC[C@H]2C3)n1` were, in that order, 2.1 nM, 990 nM and 460.
In the case of `CSc1nncc([C@H]2CN3CC[C@H]2C3)n1`, the values for the IC50 in test [1] and in test [2] were 290 nM and 1300 nM, respectively. For the same molecule, the Ratio in test [3] stood at 4.5.
In the case of `CCc1nncc([C@H]2CN3CC[C@H]2C3)n1`, the results for the concentration for half-maximal inhibition (IC50) in test [1] and in test [2] were 46 nM and 410 nM, respectively. The Ratio in test [3] stood at 9.
The like results for `Cc1noc([C@H]2CN3CC[C@H]2C3)n1` were, in that order, 2.8 nM, 1000 nM and 360.
The like results for `Cc1nncc([C@H]2CN3CC[C@H]2C3)n1` were, in that order, 3.9 nM, 410 nM and 105.
For the molecule `c1nncc([C@H]2CN3CC[C@H]2C3)n1`, the 50% inhibitory concentration (IC50) in test [1] was found to be 3.8 nM; in test [2], 1400 nM. For the same molecule, in test [3], the Ratio came out at 370.
